This is an account of results in ChEMBL document CHEMBL4699597, “Tabernaesines A-I, Cytotoxic Aspidosperma-Aspidosperma-Type Bisindole Alkaloids from Tabernaemontana pachysiphon” (J Nat Prod, 2020).

Common to all, as to format: functional, cell-based
One assay has as its system A549. The assay is described as follows: Cytotoxicity against human A549 cells assessed as reduction in cell viability after 72 hrs by MTT assay. The following applies: A549, 72 h. A general note: Tetrazolium assays rely on reduction of a dye to a coloured formazan, in cell work by metabolically active cells.
The subject of the next assay is MDA-MB-231. The assay is described as follows: Cytotoxicity against human MDA-MB-231 cells assessed as reduction in cell viability after 72 hrs by MTT assay. The settings on record: MDA-MB-231, 72 h.
A further assay concerns T47D. The assay is described as follows: Cytotoxicity against human T47D cells assessed as reduction in cell viability after 72 hrs by MTT assay.
For a further assay, the system named is SK-MEL-28. Put plainly: Cytotoxicity against human SK-MEL-28 cells assessed as reduction in cell viability after 72 hrs by MTT assay. The following applies: SK-MEL-28, 72 h.
A further assay deals with HepG2. Put plainly: Cytotoxicity against human HepG2 cells assessed as reduction in cell viability after 72 hrs by MTT assay. The settings on record: HepG2, 72 h.
A further assay relates to SW480. The assay is described as follows: Cytotoxicity against human SW480 cells assessed as reduction in cell viability after 72 hrs by MTT assay. The following applies: SW480, 72 h.

Broadly, the IC50 is the concentration that gives 50% inhibition.

In the case of `CC[C@@]12C[C@]3(CC4=C5N(C3)c3ccccc3[C@@]53CCN5C[C@H]6O[C@H]6[C@@](CC)(C4)[C@H]53)C3=Nc4ccccc4[C@@]34CCN(C[C@H]3O[C@H]31)[C@@H]24`, the IC50 in the assay on A549, with MDA-MB-231, in the assay with T47D, in the assay with SK-MEL-28, in the assay with HepG2 and in the assay with SW480 was more than 10 µM each time.
For `COC(=O)C1=C2Nc3ccccc3[C@@]23CCN2CC(CC4=C[C@@]5(CCO)CC(C(=O)OC)=C6Nc7ccccc7[C@@]67CCN(C4)[C@@H]57)=C[C@@](CCO)(C1)[C@H]23`, the IC50 in the assay with A549, in the assay with MDA-MB-231, in the assay with T47D, in the assay with SK-MEL-28, in the assay on HepG2 and in the assay with SW480 was more than 10 µM each time.
As to `CC[C@@]12C[C@H]3C[C@@]4(CN5c6ccccc6[C@@]6(CCN(C[C@H]7O[C@H]71)[C@@H]26)[C@H]35)C(=O)N1CC[C@]23C(=C(C(=O)OC)C[C@@]5(CCO[C@@H]45)[C@H]12)Nc1ccccc13`, the 50% inhibitory concentration (IC50) in the assay with A549 was more than 10 µM; in the assay on MDA-MB-231 it was more than 10 µM; with T47D, 9.8 µM; with SK-MEL-28, 6.8 µM; in the assay on HepG2, 6.3 µM; with SW480, 9.8 µM.
For the molecule `COC(=O)C1=C2Nc3ccccc3[C@@]23CCN2C[C@]4(C[C@@H]5C[C@]67CCO[C@H]6CCN6CC[C@@]8(c9cccc(OC)c9N(C4)[C@@]58O)[C@@H]67)[C@@H]4OCC[C@]4(C1)[C@H]23`, the IC50 in the assay with A549, in the assay with MDA-MB-231, with T47D, in the assay on SK-MEL-28, in the assay with HepG2 and with SW480 was more than 10 µM each time.
Turning to `CC[C@@]12C[C@H]3C[C@@]4(CN5CC[C@]67C(=C(C(=O)OC)C[C@@]8(CCO[C@@H]48)[C@H]56)Nc4ccccc47)CN4c5ccccc5[C@@]5(CCN(C[C@H](O)[C@H]1O)[C@@H]25)[C@H]34`, the IC50 in the assay with A549, in the assay on MDA-MB-231, in the assay with T47D, in the assay on SK-MEL-28, with HepG2 and in the assay with SW480 was more than 10 µM in each case.
`COC(=O)C1=C2Nc3ccccc3[C@@]23CCN2C[C@]4(C[C@@H]5C[C@]67CC(=O)O[C@H]6CCN6CC[C@@]8(c9cccc(OC)c9N(C4)[C@@]58O)[C@@H]67)[C@@H]4OCC[C@]4(C1)[C@H]23`: the IC50 in the assay with A549, in the assay with MDA-MB-231, in the assay with T47D, in the assay on SK-MEL-28, with HepG2 and in the assay on SW480 was more than 10 µM throughout.
With `CCN(CC)Cc1ccc2c(c1O)N1C[C@]3(C[C@@H]4C[C@]56CCO[C@H]5CCN5CC[C@@]2([C@@H]56)[C@]41O)CN1CC[C@]24C(=C(C(=O)OC)C[C@@]5(CCO[C@@H]35)[C@H]12)Nc1ccccc14`, the IC50 with A549 is more than 10 µM; with MDA-MB-231, more than 10 µM; with T47D it was more than 10 µM; with SK-MEL-28, 8.3 µM; in the assay with HepG2, 7.4 µM; in the assay on SW480, more than 10 µM.
`CC[C@]1(O)C[C@@H]2CN(CCc3c([nH]c4ccccc34)[C@@](C(=O)OC)(c3cc4c(cc3OC)N(C)[C@H]3[C@@](O)(C(=O)OC)[C@H](OC(C)=O)[C@]5(CC)C=CCN6CC[C@]43[C@@H]65)C2)C1` [VINBLASTINE]: the IC50 in the assay on A549 was 0.021 µM; in the assay on MDA-MB-231, 0.0425 µM; in the assay with T47D, 0.0103 µM; in the assay on SK-MEL-28, 0.0733 µM; in the assay with HepG2 it was 0.0093 µM; in the assay with SW480, 0.0325 µM.
In the case of `CC[C@@]12CC3=C4N(C[C@]5(C3)CN3CC[C@]67C(=C(C(=O)OC)C[C@@]8(CCO[C@@H]58)[C@H]36)Nc3ccccc37)c3ccccc3[C@@]43CCN(C[C@H]4O[C@H]41)[C@@H]23`, the IC50 in the assay with A549, with MDA-MB-231, in the assay on T47D, in the assay with SK-MEL-28, with HepG2 and in the assay with SW480 was more than 10 µM throughout.
As to `CC[C@@]12C[C@H]3C[C@]4(CN5CC[C@]67C(=C(C(=O)OC)C[C@@]8(CCO[C@@H]48)[C@H]56)Nc4ccccc47)CN4c5ccccc5[C@@]5(CCN(C[C@H]6O[C@H]61)[C@@H]25)[C@]34O`, the IC50 is more than 10 µM with A549; more than 10 µM in the assay with MDA-MB-231; 5.5 µM in the assay on T47D; 6.4 µM with SK-MEL-28; 9.6 µM in the assay with HepG2; 7.2 µM in the assay with SW480.
On to `COC(=O)C1=C2Nc3ccccc3[C@@]23CCN2C[C@]4(C[C@@H]5C[C@]67CC(=O)O[C@H]6CCN6CC[C@@]8(c9cccc(O)c9N(C4)[C@@]58O)[C@@H]67)[C@@H]4OCC[C@]4(C1)[C@H]23`, for which the IC50 in the assay with A549, in the assay on MDA-MB-231, in the assay on T47D, with SK-MEL-28, in the assay with HepG2 and with SW480 was more than 10 µM in each case.
Take `CC[C@@]12C[C@H]3C[C@]4(CN5CC[C@]67C(=C(C(=O)OC)C[C@@]8(CCO[C@@H]48)[C@H]56)Nc4ccccc47)CN4c5ccccc5[C@@]5(CCN(C[C@H](O)[C@H]1O)[C@@H]25)[C@H]34`: the IC50 was more than 10 µM in the assay with A549; more than 10 µM in the assay on MDA-MB-231; 8.7 µM in the assay with T47D; 6.7 µM in the assay with SK-MEL-28; 2.5 µM in the assay with HepG2; 7.8 µM in the assay with SW480.
Take `CC[C@@]12C[C@H]3C[C@@]4(CN5CC[C@]67C(=C(C(=O)OC)C[C@@]8(CCO[C@@H]48)[C@H]56)Nc4ccccc47)CN4c5ccccc5[C@@]5(CCN(C[C@H]6O[C@H]61)[C@@H]25)[C@]34O`: the IC50 in the assay on A549 is more than 10 µM; in the assay on MDA-MB-231 it was 8.3 µM; in the assay with T47D, more than 10 µM; in the assay with SK-MEL-28, more than 10 µM; with HepG2, more than 10 µM; in the assay on SW480 it was more than 10 µM.
Take `CCN(CC)Cc1ccc2c(c1O)N1C[C@]3(C[C@@H]4C[C@]56CC(=O)O[C@H]5CCN5CC[C@@]2([C@@H]56)[C@]41O)CN1CC[C@]24C(=C(C(=O)OC)C[C@@]5(CCO[C@@H]35)[C@H]12)Nc1ccccc14`: the IC50 in the assay on A549, with MDA-MB-231, in the assay with T47D, in the assay with SK-MEL-28, with HepG2 and in the assay with SW480 was more than 10 µM throughout.
Turning to `CC[C@@]12C[C@H]3C[C@]4(CN5CC[C@]67C(=C(C(=O)OC)C[C@@]8(CCO[C@@H]48)[C@H]56)Nc4ccccc47)CN4c5ccccc5[C@@]5(CCN(C[C@H](O)[C@H]1O)[C@@H]25)[C@]34O`, the IC50 with A549 is more than 10 µM; in the assay with MDA-MB-231, more than 10 µM; with T47D, 9.5 µM; in the assay with SK-MEL-28, more than 10 µM; with HepG2, more than 10 µM; in the assay on SW480 it was more than 10 µM.
As for `CC[C@@]12C[C@H]3C[C@]4(CN5CC[C@]67C(=C(C(=O)OC)C[C@@]8(CCO[C@@H]48)[C@H]56)Nc4ccccc47)CN4c5ccccc5[C@@]5(CCN(C[C@H]6O[C@H]61)[C@@H]25)[C@H]34`, the IC50 with A549, with MDA-MB-231, in the assay with T47D, in the assay on SK-MEL-28, in the assay on HepG2 and with SW480 was more than 10 µM each time.
As for `CC[C@@]12C[C@H]3C[C@@]4(CN5CC[C@]67C(=C(C(=O)OC)C[C@@]8(CCO[C@@H]48)[C@H]56)Nc4ccccc47)CN4c5ccccc5[C@@]5(CCN(C[C@H](O)[C@H]1O)[C@@H]25)[C@]34O`, the IC50 in the assay on A549, in the assay with MDA-MB-231, with T47D, with SK-MEL-28, in the assay on HepG2 and in the assay on SW480 was more than 10 µM each time.
As to `COC(=O)C1=C2Nc3ccccc3[C@@]23CCN2C[C@]4(C[C@@H]5C[C@]67CC(=O)O[C@H]6CCN6CC[C@@]8(c9cccc(OC)c9N(C4)[C@@H]58)[C@@H]67)[C@@H]4OCC[C@]4(C1)[C@H]23` [DEOXYVOBSTUSINE LACTONE], the half-maximal inhibitory concentration (IC50) in the assay with A549, in the assay with MDA-MB-231, in the assay with T47D, in the assay with SK-MEL-28, in the assay with HepG2 and in the assay on SW480 was more than 10 µM in each case.
For the molecule `CC[C@@]12C[C@H]3C[C@@]4(CN5CC[C@]67C(=C(C(=O)OC)C[C@@]8(CCO[C@@H]48)[C@H]56)Nc4ccccc47)CN4c5ccccc5[C@@]5(CCN(C[C@H]6O[C@H]61)[C@@H]25)[C@H]34`, the IC50 with A549, in the assay with MDA-MB-231, in the assay with T47D, in the assay on SK-MEL-28, in the assay with HepG2 and in the assay with SW480 was more than 10 µM throughout.
